In ChEMBL document CHEMBL4813957, “Antitubercular properties of thiazolidin-4-ones - A review” (Eur J Med Chem, 2021):
Converted amounts (≈) assume the structure as drawn. Counter-ions that a name gives are not always drawn.

What was measured:
[1] = tested on: Mycobacterium tuberculosis; assay: Antimycobacterial activity against Mycobacterium tuberculosis H37Rv assessed as bacterial growth inhibition at 6.25 ug/ml by BACTEC MGIT method relative to control; assay type: functional
[2] = tested on: Mycobacterium tuberculosis; assay: Antimycobacterial activity against Mycobacterium tuberculosis H37Ra ATCC 25177 by XTT Reduction Menadione assay; assay type: functional
[3] = tested on: Mycobacterium tuberculosis; assay: Antimycobacterial activity against Mycobacterium tuberculosis H37Rv measured after 12 to 28 days by Lowenstein-Jensen method; assay type: functional; details: time 12-28 day
[4] = tested on: Mycobacterium tuberculosis; assay: Antimycobacterial activity against Mycobacterium tuberculosis H37Rv assessed as growth inhibition at 12.5 ug/ml by BACTEC radiometric method relative to control; assay type: functional; details: read-out: GI
[5] = tested on: Mycobacterium tuberculosis; assay: Antimycobacterial activity against Mycobacterium tuberculosis H37Rv ATCC 27294 by BACTEC radiometric method; assay type: functional
[6] = tested on: Mycobacterium tuberculosis; assay: Antimycobacterial activity against Mycobacterium tuberculosis H37Rv ATCC27294 measured after 28 days by two-fold serial dilution method; assay type: functional; details: H37Rv ATCC 27294, 672 h, time 28 day
[7] = tested on: Mycobacterium tuberculosis; assay: Antimycobacterial activity against Mycobacterium tuberculosis H37Rv by Lowenstein-Jensen agar method; assay type: functional
[8] = tested on: Mycobacterium tuberculosis; assay: Antimycobacterial activity against Mycobacterium tuberculosis H37Rv by filter paper disc diffusion method; assay type: functional
[9] = tested on: Mycobacterium tuberculosis; assay: Antimycobacterial activity against Mycobacterium tuberculosis H37Rv ATCC 27294 incubated for 5 days by microplate alamar blue assay; assay type: functional; details: H37Rv ATCC 27294, 120 h, time 5 day
[10] = Cytotoxicity against African green monkey Vero cells after 72 hrs by cell titer glo luminescent cell viability assay; assay type: cell-based; details: chlorocebus sabaeus
[11] = tested on: Mycobacterium tuberculosis; assay: Antimycobacterial activity against Mycobacterium tuberculosis H37Rv 27294 by microplate alamar blue assay; assay type: functional
[12] = tested on: Mycobacterium tuberculosis; assay: Antimycobacterial activity against Mycobacterium tuberculosis by microplate alamar blue assay; assay type: functional
[13] = tested on: Mycobacterium tuberculosis; assay: Antimycobacterial activity against Mycobacterium tuberculosis H37Rv incubated for 45 days by Lowenstein-Jensen method; assay type: functional; details: 1080 h, time 45 day
[14] = tested on: Mycobacterium tuberculosis; assay: Antimycobacterial activity against Mycobacterium tuberculosis; assay type: functional
[15] = tested on: Mycobacterium tuberculosis; assay: Antimycobacterial activity against Mycobacterium tuberculosis H37Rv ATCC27294 incubated for 7 days by microplate alamar blue assay; assay type: functional; details: H37Rv ATCC 27294, 168 h, time 7 day
[16] = tested on: Mycobacterium tuberculosis; assay: Antimycobacterial activity against Mycobacterium tuberculosis H37Rv incubated for 7 days by microplate alamar blue assay; assay type: functional; details: 168 h, time 7 day
[17] = tested on: Mycolicibacterium smegmatis; assay: Antimycobacterial activity against Mycobacterium smegmatis ATCC 35797 incubated for 48 hrs by agar dilution method; assay type: functional
[18] = tested on: Mycobacterium tuberculosis; assay: Antimycobacterial activity against Mycobacterium tuberculosis ATCC 27286 assessed as zone of inhibition at 20 ug/ml; assay type: functional; details: read-out: IZ
[19] = tested on: Mycobacterium tuberculosis; assay: Antimycobacterial activity against Mycobacterium tuberculosis H37Rv incubated for 4 weeks; assay type: functional; details: 672 h
[20] = tested on: Mycobacterium tuberculosis; assay: Antimycobacterial activity against Mycobacterium tuberculosis H37Ra ATCC 25177 measured on 12th day by XTT reduction menadione assay; assay type: functional; details: H37Ra ATCC 25177, 288 h, time 12 day
[21] = Inhibition of Mycobacterium tuberculosis Pantothenate Synthetase expressed in Escherichia coli BL21(DE3) cells using beta-alanine as substrate
[22] = tested on: Mycobacterium tuberculosis; assay: Antimycobacterial activity against Mycobacterium tuberculosis H37Rv ATCC 25618 incubated for 5 days by colorimetric microdilution assay; assay type: functional; details: H37Rv ATCC 25618, 120 h, time 5 day
[23] = tested on: Mycobacterium tuberculosis; assay: Antimycobacterial activity against Mycobacterium tuberculosis H37Rv assessed as growth inhibition at 6.25 ug/ml by BACTEC radiometric method relative to control; assay type: functional; details: read-out: GI
[24] = tested on: Mycobacterium tuberculosis; assay: Antimycobacterial activity against Mycobacterium tuberculosis H37Rv assessed as growth inhibition at 50 ug/ml by Lowenstein-Jensen method relative to control; assay type: functional; details: read-out: GI
[25] = tested on: Mycobacterium tuberculosis; assay: Antimycobacterial activity against Mycobacterium tuberculosis H37Rv assessed as bacterial inhibition at 25 ug/ml by microplate alamar blue assay relative to control; assay type: functional
[26] = tested on: Mycobacterium tuberculosis; assay: Antimycobacterial activity against Mycobacterium tuberculosis H37Rv assessed as inhibition of bacteria at 12.5 ug/ml by microplate alamar blue assay relative to control; assay type: functional
[27] = Selectivity ratio of IC50 for human WI-38 cells to MIC for Mycobacterium tuberculosis RCMB 010126; assay type: toxicity
WI-38 = assay: Cytotoxicity against human WI-38 cells by MTT assay; assay type: cell-based
[28] = tested on: Mycobacterium tuberculosis; assay: Antimycobacterial activity against Mycobacterium tuberculosis RCMB 010126 measured after 7 days by microplate alamar blue assay; assay type: functional; details: RCMB 010126, 168 h, time 7 day
[29] = tested on: Mycobacterium tuberculosis; assay: Antimycobacterial activity against Mycobacterium tuberculosis H37Rv assessed as mycobacterial growth inhibition at 12.5 ug/ml relative to control; assay type: functional; details: read-out: GI

SMILES: Cc1nc2ccccc2c(=O)n1CCNC1=NC(=O)/C(=C/c2ccc([N+](=O)[O-])cc2)S1
- inhibition at 6.25 µg/mL [1]: 99%

SMILES: O=C1NC(=S)S/C1=C\c1ccc([N+](=O)[O-])cc1
- IC90 [2]: 22.3 µg/mL (≈ 83.7 µM)

SMILES: CCc1ccc(CCOc2ccc(/C=C3\SC(=S)N(CC(=O)Nc4nc5ccc(C)cc5s4)C3=O)cc2)nc1
- MIC [3]: 25 µg/mL (≈ 43.5 µM)

SMILES: Cc1cc(C)c2c(c1)C1(SCC(=O)N1c1ccccc1C(=O)O)C(=O)N2 (configuration not stated)
- inhibition of growth at 12.5 µg/mL [4]: 90%

SMILES: O=C(NN1C(=O)CSC1c1ccc([N+](=O)[O-])cc1)c1[nH]c2ccc(F)cc2c1-c1ccccc1 (configuration not stated)
- MIC [5]: 6.25 µg/mL (≈ 13.1 µM)

SMILES: CO[C@H]1/C=C/O[C@@]2(C)Oc3c(C)c(O)c4c(O)c(c(/C=N/N5CCN(C)CC5)c(O)c4c3C2=O)NC(=O)/C(C)=C\C=C\[C@H](C)[C@H](O)[C@@H](C)[C@@H](O)[C@@H](C)[C@H](OC(C)=O)[C@@H]1C [RIFAMPIN]
- MIC [6]: 0.24 µM (≈ 0.198 µg/mL)
- MIC [3]: 40 µg/mL (≈ 48.6 µM)
- MIC [7]: 40 µg/mL (≈ 48.6 µM)
- MIC [8]: 2.5 µg/mL (≈ 3.04 µM)
- MIC [9]: 1 µg/mL (≈ 1.22 µM)

SMILES: CCN1C(=O)/C(=C/c2ccc(F)cc2)S/C1=N/NC(=O)c1ccncc1
- CC50 at 72 h [10]: 9.69 µg/mL (≈ 26.2 µM)
- IC90 [11]: 2.95 µg/mL (≈ 7.97 µM)

SMILES: O=C(NN1C(=O)CSC1c1ccc([N+](=O)[O-])cc1)c1coc2ccc3ccccc3c12 (configuration not stated)
- MIC [12]: 50 µg/mL (≈ 115 µM)

SMILES: CC1Oc2ccccc2C=C1/C=C1\SC(=S)NC1=O (configuration not stated)
- MIC [13]: 0.36 µM (≈ 0.104 µg/mL)

SMILES: Cc1nc(/N=C2\C(=O)Nc3ccccc32)sc1C(=O)NN1C(=O)CSC1c1ccc(F)cc1 (configuration not stated)
- MIC [14]: 0.78 µM (≈ 0.376 µg/mL)

SMILES: N#CSc1ccc2nc(NC(=O)CN3C(=O)/C(=C/c4cccc(Br)c4)SC3=S)sc2c1
- MIC [3]: 25 µg/mL (≈ 45.7 µM)

SMILES: NNC(=O)c1ccncc1 [ISONIAZID]
- MIC [15]: 0.56 µg/mL (≈ 4.08 µM)
- MIC [6]: 0.72 µM (≈ 0.0987 µg/mL)
- MIC [8]: 1.25 µg/mL (≈ 9.11 µM)
- MIC [16]: 1.6 µg/mL
- MIC [17]: 12.5 µg/mL (≈ 91.1 µM)
- MIC [9]: 0.2 µg/mL (≈ 1.46 µM)
- zone of inhibition at 20 µg/mL [18]: 31 mm
- MIC [13]: 0.64 µM (≈ 0.0878 µg/mL)

SMILES: COc1ccc(/C=C2\SC(=O)N(CNNC(=O)c3ccncc3)C2=O)cc1
- MIC [19]: 50 µg/mL (≈ 130 µM)

SMILES: O=C1CSC(c2ccc(OCc3cc4ccccc4n4nnnc34)cc2)N1c1ccc([N+](=O)[O-])cc1 (configuration not stated)
- MIC [20]: 20.3 µg/mL (≈ 40.8 µM)

SMILES: CC[C@@H](CO)NCCN[C@@H](CC)CO [ETHAMBUTOL HYDROCHLORIDE]
- MIC [13]: 1.45 µM

SMILES: O=C(CCN1C(=O)/C(=C/c2ccc([N+](=O)[O-])cc2)SC1=S)NNC(=O)c1ccccc1
- IC50 [21]: 370 nM
- MIC [16]: 1.71 µM

SMILES: C/C(=N/N=C1\NC(=O)CS1)c1cc2ccccc2oc1=O
- MIC [22]: 83 µg/mL (≈ 275 µM)

SMILES: COc1ccc(C(=O)Nc2ccc(C(=O)NN3C(=O)CSC3c3ccccc3)cc2)cc1 (configuration not stated)
- inhibition of growth at 6.25 µg/mL [23]: 90%

SMILES: O=C(NCCCN1c2ccccc2Sc2ccccc21)N1C(=O)/C(=C/c2ccc([N+](=O)[O-])cc2)SC1c1ccc([N+](=O)[O-])cc1 (configuration not stated)
- inhibition of growth at 50 µg/mL [24]: 82%

SMILES: CCCCCCCCCCCCN1C(=O)C(CC(=O)O)SC12CCN(C(=O)C(N)Cc1ccccc1)CC2 (configuration not stated)
- inhibition at 25 µg/mL [25]: 97%
- inhibition at 12.5 µg/mL [26]: 94%

SMILES: Cc1nc(/N=C2\C(=O)Nc3ccccc32)sc1C(=O)NN1C(=O)CSC1c1ccccc1F (configuration not stated)
- MIC [14]: 0.78 µM (≈ 0.376 µg/mL)

SMILES: CCOC(=O)c1sc(/N=C2\NC(=O)/C(=C/c3cccnc3)S2)nc1C
- selectivity ratio [27]: 52
- IC50 (WI-38): 81.3 µg/mL (≈ 217 µM)
- MIC [28]: 1.56 µg/mL (≈ 4.17 µM)

SMILES: CCN1C(=O)/C(=C/c2ccccc2F)S/C1=N/NC(=O)c1ccncc1
- CC50 at 72 h [10]: 22.8 µg/mL (≈ 61.4 µM)
- IC90 [11]: 2.95 µg/mL (≈ 7.97 µM)

SMILES: COc1ccc(/C=C2\SC(=S)N(Cc3nnc(-c4cccnc4SCc4ccccc4)o3)C2=O)cc1
- inhibition of growth at 50 µg/mL [24]: 99%

SMILES: CC1SC(c2ccc(O)cc2)N(Nc2nc(-c3ccccc3)c(C#N)c(=O)n2C)C1=O (configuration not stated)
- inhibition of growth at 12.5 µg/mL [29]: 44%
